Data on 29 molecules can be found in patent US6002023A, “2-debenzoyl-2-acyl taxol derivatives and method for making same” (Virginia Tech Intellectural Properties, Inc., priority 1997, dated 1999).

This experiment has as its system P-388 lymphocytic leukemia cells. Kind of experiment: cytotoxicity, cell culture assay using P-388 lymphocytic leukemia cells, compared with taxol. The format is cell-based. The settings on record: for ED50 /ED50 (taxol): P-388 leukemia, value of less than 1 = more active than taxol; for biological activity as compared with taxol (in words): P-388 cell culture assay; for antineoplastic activity relative to taxol, cell culture assay (P-388 leukemia in vitro): fold activity versus taxol. From the text: Acylation of 22 with various aromatic carboxylic acids in the presence of dicyclohexylcarbodiimide and 4-pyrrolidinopyridine has led to the preparation of various 2-debenzoyl-2-acyl taxols 13. […] For details of the cell culture assay, see Abbott, B. J., "Protocol 14 of Instruction 275," National Cancer Institute, National Institutes of Health, Jan. 24, 1978.

Consider `CC(=O)O[C@H]1C(=O)[C@@]2(C)[C@H]([C@H](OC(=O)c3cccc(N)c3)[C@]3(O)C[C@H](OC(=O)[C@H](O)[C@@H](NC(=O)c4ccccc4)c4ccccc4)C(C)=C1C3(C)C)[C@]1(OC(C)=O)CO[C@@H]1C[C@@H]2O` [Compound 13a], for which the “ED50 /ED50 (taxol)” value is on record as 1500.
Same read-out and setting: with `CC(=O)O[C@H]1C(=O)[C@@]2(C)[C@H]([C@H](OC(=O)c3ccc(C#N)cc3)[C@]3(O)C[C@H](OC(=O)[C@H](O)[C@@H](NC(=O)c4ccccc4)c4ccccc4)C(C)=C1C3(C)C)[C@]1(OC(C)=O)CO[C@@H]1C[C@@H]2O` [Compound 13aa] the figure was 30.
`CC(=O)O[C@H]1C(=O)[C@@]2(C)[C@H]([C@H](OC(=O)/C=C/c3ccccc3)[C@]3(O)C[C@H](OC(=O)[C@H](O)[C@@H](NC(=O)c4ccccc4)c4ccccc4)C(C)=C1C3(C)C)[C@]1(OC(C)=O)CO[C@@H]1C[C@@H]2O` [Compound 13b]: the “biological activity as compared with taxol (in words)” value is “less active or about as active as taxol” and the “ED50 /ED50 (taxol)” value came to 10.
In the case of `CC(=O)O[C@H]1C(=O)[C@@]2(C)[C@H]([C@H](OC(=O)c3ccc(Cl)cc3)[C@]3(O)C[C@H](OC(=O)[C@H](O)[C@@H](NC(=O)c4ccccc4)c4ccccc4)C(C)=C1C3(C)C)[C@]1(OC(C)=O)CO[C@@H]1C[C@@H]2O` [Compound 13bb], the “ED50 /ED50 (taxol)” value is reported as 150.
As for `CC(=O)O[C@H]1C(=O)[C@@]2(C)[C@H]([C@H](OC(=O)c3cccc([N+](=O)[O-])c3)[C@]3(O)C[C@H](OC(=O)[C@H](O)[C@@H](NC(=O)c4ccccc4)c4ccccc4)C(C)=C1C3(C)C)[C@]1(OC(C)=O)CO[C@@H]1C[C@@H]2O` [Compound 13c], the “biological activity as compared with taxol (in words)” value is given as “much greater biological activity than taxol” and the “ED50 /ED50 (taxol)” value was 0.3.
On to `CSc1ccc(C(=O)O[C@H]2[C@@H]3[C@]4(OC(C)=O)CO[C@@H]4C[C@H](O)[C@@]3(C)C(=O)[C@H](OC(C)=O)C3=C(C)[C@@H](OC(=O)[C@H](O)[C@@H](NC(=O)c4ccccc4)c4ccccc4)C[C@]2(O)C3(C)C)cc1` [Compound 13cc], for which the “ED50 /ED50 (taxol)” value came to 12.
Turning to `CC(=O)OC1C(=O)C2(C)C(O)CC3OCC3(OC(C)=O)C2C(OC(=O)c2cccc(Cl)c2)C2(O)CC(OC(=O)C(O)C(NC(=O)c3ccccc3)c3ccccc3)C(C)=C1C2(C)C` (stereo not shown) [Compound 13d], the “biological activity as compared with taxol (in words)” value is “much greater biological activity than taxol” and the “ED50 /ED50 (taxol)” value was found to be 0.1.
With `CC(=O)O[C@H]1C(=O)[C@@]2(C)[C@H]([C@H](OC(=O)c3ccc([N+](=O)[O-])cc3)[C@]3(O)C[C@H](OC(=O)[C@H](O)[C@@H](NC(=O)c4ccccc4)c4ccccc4)C(C)=C1C3(C)C)[C@]1(OC(C)=O)CO[C@@H]1C[C@@H]2O` [Compound 13dd], the “ED50 /ED50 (taxol)” value came out at 8.3.
Still for that read-out and setting: with `CC(=O)OC1C(=O)C2(C)C(O)CC3OCC3(OC(C)=O)C2C(OC(=O)c2cc([N+](=O)[O-])cc([N+](=O)[O-])c2)C2(O)CC(OC(=O)C(O)C(NC(=O)c3ccccc3)c3ccccc3)C(C)=C1C2(C)C` (stereo not shown) [Compound 13e] the figure was 2.0.
Turning to `CC(=O)O[C@H]1C(=O)[C@@]2(C)[C@H]([C@H](OC(=O)c3ccc(C(F)(F)F)cc3)[C@]3(O)C[C@H](OC(=O)[C@H](O)[C@@H](NC(=O)c4ccccc4)c4ccccc4)C(C)=C1C3(C)C)[C@]1(OC(C)=O)CO[C@@H]1C[C@@H]2O` [Compound 13ee], the “ED50 /ED50 (taxol)” value amounted to 30.
Regarding `CC(=O)O[C@H]1C(=O)[C@@]2(C)[C@H]([C@H](OC(=O)c3cccc(N=[N+]=[N-])c3)[C@]3(O)C[C@H](OC(=O)[C@H](O)[C@@H](NC(=O)c4ccccc4)c4ccccc4)C(C)=C1C3(C)C)[C@]1(OC(C)=O)CO[C@@H]1C[C@@H]2O` [Compound 13f, 2-debenzoyl-2-(m-azidobenzoyl)taxol], the “biological activity as compared with taxol (in words)” value is listed as “much greater biological activity than taxol”; the “ED50 /ED50 (taxol)” value came to 0.002; the “antineoplastic activity relative to taxol, cell culture assay (P-388 leukemia in vitro)” value is 500 times.
For `CC(=O)O[C@H]1C(=O)[C@@]2(C)[C@H]([C@H](OC(=O)c3ccc(C(C)=O)cc3)[C@]3(O)C[C@H](OC(=O)[C@H](O)[C@@H](NC(=O)c4ccccc4)c4ccccc4)C(C)=C1C3(C)C)[C@]1(OC(C)=O)CO[C@@H]1C[C@@H]2O` [Compound 13ff], the “ED50 /ED50 (taxol)” value is listed as 30.
Still for that read-out and setting: with `COc1cc(C(=O)O[C@H]2[C@@H]3[C@]4(OC(C)=O)CO[C@@H]4C[C@H](O)[C@@]3(C)C(=O)[C@H](OC(C)=O)C3=C(C)[C@@H](OC(=O)[C@H](O)[C@@H](NC(=O)c4ccccc4)c4ccccc4)C[C@]2(O)C3(C)C)cc(OC)c1OC` [Compound 13g] the figure was 0.5; with `CC(=O)O[C@H]1C(=O)[C@@]2(C)[C@H]([C@H](OC(=O)c3cccc(C#N)c3)[C@]3(O)C[C@H](OC(=O)[C@H](O)[C@@H](NC(=O)c4ccccc4)c4ccccc4)C(C)=C1C3(C)C)[C@]1(OC(C)=O)CO[C@@H]1C[C@@H]2O` [Compound 13h], 0.25.
For `CC(=O)O[C@H]1C(=O)[C@@]2(C)[C@H]([C@H](OC(=O)c3cccc(C(F)(F)F)c3)[C@]3(O)C[C@H](OC(=O)[C@H](O)[C@@H](NC(=O)c4ccccc4)c4ccccc4)C(C)=C1C3(C)C)[C@]1(OC(C)=O)CO[C@@H]1C[C@@H]2O` [Compound 13i], the “ED50 /ED50 (taxol)” value is reported as 15.
Still for that read-out and setting: with `CC(=O)O[C@H]1C(=O)[C@@]2(C)[C@H]([C@H](OC(=O)c3cccc(F)c3)[C@]3(O)C[C@H](OC(=O)[C@H](O)[C@@H](NC(=O)c4ccccc4)c4ccccc4)C(C)=C1C3(C)C)[C@]1(OC(C)=O)CO[C@@H]1C[C@@H]2O` [Compound 13j] the figure was 0.35.
Still for that read-out and setting: with `CC(=O)OC1C(=O)C2(C)C(O)CC3OCC3(OC(C)=O)C2C(OC(=O)c2cccs2)C2(O)CC(OC(=O)C(O)C(NC(=O)c3ccccc3)c3ccccc3)C(C)=C1C2(C)C` (stereo not shown) [Compound 13k] the figure was 10; with `CC(=O)O[C@H]1C(=O)[C@@]2(C)[C@H]([C@H](OC(=O)c3ccc(Cl)c(Cl)c3)[C@]3(O)C[C@H](OC(=O)[C@H](O)[C@@H](NC(=O)c4ccccc4)c4ccccc4)C(C)=C1C3(C)C)[C@]1(OC(C)=O)CO[C@@H]1C[C@@H]2O` [Compound 13m], 0.003; with `CC(=O)O[C@H]1C(=O)[C@@]2(C)[C@H]([C@H](OC(=O)c3cccc(C)c3)[C@]3(O)C[C@H](OC(=O)[C@H](O)[C@@H](NC(=O)c4ccccc4)c4ccccc4)C(C)=C1C3(C)C)[C@]1(OC(C)=O)CO[C@@H]1C[C@@H]2O` [Compound 13n], 0.04.
As for `CC(=O)O[C@H]1C(=O)[C@@]2(C)[C@H]([C@H](OC(=O)c3ccccc3Cl)[C@]3(O)C[C@H](OC(=O)[C@H](O)[C@@H](NC(=O)c4ccccc4)c4ccccc4)C(C)=C1C3(C)C)[C@]1(OC(C)=O)CO[C@@H]1C[C@@H]2O` [Compound 13o], the “biological activity as compared with taxol (in words)” value was “increased bioactivity as compared with taxol” and the “ED50 /ED50 (taxol)” value amounted to 0.011.
`COc1cccc(C(=O)O[C@H]2[C@@H]3[C@]4(OC(C)=O)CO[C@@H]4C[C@H](O)[C@@]3(C)C(=O)[C@H](OC(C)=O)C3=C(C)[C@@H](OC(=O)[C@H](O)[C@@H](NC(=O)c4ccccc4)c4ccccc4)C[C@]2(O)C3(C)C)c1` [Compound 13p]: the “ED50 /ED50 (taxol)” value amounted to 0.0004.
The same measure, in the same setting: with `CC(=O)O[C@H]1C(=O)[C@@]2(C)[C@H]([C@H](OC(=O)c3cccc(Oc4ccccc4)c3)[C@]3(O)C[C@H](OC(=O)[C@H](O)[C@@H](NC(=O)c4ccccc4)c4ccccc4)C(C)=C1C3(C)C)[C@]1(OC(C)=O)CO[C@@H]1C[C@@H]2O` [Compound 13r] the figure was 4.3; with `CC(=O)O[C@H]1C(=O)[C@@]2(C)[C@H]([C@H](OC(=O)c3cccc(I)c3)[C@]3(O)C[C@H](OC(=O)[C@H](O)[C@@H](NC(=O)c4ccccc4)c4ccccc4)C(C)=C1C3(C)C)[C@]1(OC(C)=O)CO[C@@H]1C[C@@H]2O` [Compound 13s], 0.028.
Take `CC(=O)O[C@H]1C(=O)[C@@]2(C)[C@H]([C@H](OC(=O)c3cc(F)cc(F)c3)[C@]3(O)C[C@H](OC(=O)[C@H](O)[C@@H](NC(=O)c4ccccc4)c4ccccc4)C(C)=C1C3(C)C)[C@]1(OC(C)=O)CO[C@@H]1C[C@@H]2O` [Compound 13t, 2-debenzoyl-2-(3,5-difluorobenzoyl)taxol]: the “ED50 /ED50 (taxol)” value is 0.00004 and the “antineoplastic activity relative to taxol, cell culture assay (P-388 leukemia in vitro)” value was 25,000 times. For the same molecule, the “antineoplastic activity relative to taxol, cell culture assay (P-388 leukemia in vitro)” value (listed as drawing 14) is recorded as “about 25,000 times”.
For the molecule `CC(=O)O[C@H]1C(=O)[C@@]2(C)[C@H]([C@H](OC(=O)c3ccc4ccccc4c3)[C@]3(O)C[C@H](OC(=O)[C@H](O)[C@@H](NC(=O)c4ccccc4)c4ccccc4)C(C)=C1C3(C)C)[C@]1(OC(C)=O)CO[C@@H]1C[C@@H]2O` [Compound 13u], the “ED50 /ED50 (taxol)” value worked out at 10.
The same measure, in the same setting: with `CC(=O)O[C@H]1C(=O)[C@@]2(C)[C@H]([C@H](OC(=O)c3ccoc3)[C@]3(O)C[C@H](OC(=O)[C@H](O)[C@@H](NC(=O)c4ccccc4)c4ccccc4)C(C)=C1C3(C)C)[C@]1(OC(C)=O)CO[C@@H]1C[C@@H]2O` [Compound 13v] the figure was 1.4.
Same read-out and setting: with `CC(=O)O[C@H]1C(=O)[C@@]2(C)[C@H]([C@H](OC(C)=O)[C@]3(O)C[C@H](OC(=O)[C@H](O)[C@@H](NC(=O)c4ccccc4)c4ccccc4)C(C)=C1C3(C)C)[C@]1(OC(C)=O)CO[C@@H]1C[C@@H]2O` [Compound 13w] the figure was 28.
For `CC(=O)O[C@H]1C(=O)[C@@]2(C)[C@H]([C@H](OC(=O)COc3ccccc3)[C@]3(O)C[C@H](OC(=O)[C@H](O)[C@@H](NC(=O)c4ccccc4)c4ccccc4)C(C)=C1C3(C)C)[C@]1(OC(C)=O)CO[C@@H]1C[C@@H]2O` [Compound 13x], the “ED50 /ED50 (taxol)” value is given as 0.7.
With `CC(=O)O[C@H]1C(=O)[C@@]2(C)[C@H]([C@H](OC(=O)c3ccc(F)cc3)[C@]3(O)C[C@H](OC(=O)[C@H](O)[C@@H](NC(=O)c4ccccc4)c4ccccc4)C(C)=C1C3(C)C)[C@]1(OC(C)=O)CO[C@@H]1C[C@@H]2O` [Compound 13y], the “ED50 /ED50 (taxol)” value amounted to 0.5.
